In patent publication EP1096933B1, “USE OF AN INHIBITOR OF CYTOCHROME P450 OPTIONALLY COMBINED WITH AN ANTIFUNGAL AGENT FOR TREATING MYCOSES” (priority 1998, dated 2000):
Like-named read-outs stand apart in the source and are kept apart here.

What was measured:
Assay in all cases: growth of strains streaked on Sabouraud agar containing the products
Format in all cases: cell-based
Microsporum canis = conditions: Micro. Canis, read-out: inhibition de la croissance
Experimental: (§1) Ces molécules ont été incorporées dans un milieu gélosé dit de Sabouraud (peptone 10g/l, glucose 10 g/l, gomme agar 15 g/l).
(§2) Des souches de diverses espèces de champignons ont été ensemencées par stries par la méthode de Stires.
(§3) Le pourcentage de croissance a été mesuré au cours du temps, pour des périodes allant jusqu'à 21 jours, pour certaines des souches testées.
(§4) Les quantités de pipéronyl butoxyde, et de cyclopyroxolamine utilisées sont identiques et sont de 10 ou 20 µg/ml dans le cas de l'association entre ces deux composés.
(§5) Dans le cas de l'association entre le pipéronyl butoxyde et l'éconazole, elles sont respectivement de 10 ou 20 µg/ml de pipéronyl butoxyde et de 1 µg/ml d'éconazole.
(§6) Des souches appartenant aux espèces suivantes ont été testées: Microsporum canis, Trichophyton rubrum, Trichophyton interdigitale, Trichophyton mentagrophytes, Microsporum persicolor, Epidermophyton floccosum, Trichophyton violaceum et Trichophyton soudanense.
(§7) L'activité du pipéronyl butoxyde seul a été testée à diverses concentrations, comme indiqué dans le tableau 1 sur le milieu de Sabouraud, dépourvu de tout autre fongicide.

Epidermophyton floccosum = conditions: Epid.Flocosum; for activity at 10 µg/mL: read-out: % DE CROISSANCE; for inhibition at 2 µg/mL / inhibition at 10 µg/mL / inhibition at 20 µg/mL / inhibition at 50 µg/mL: read-out: inhibition de la croissance
Experimental: as §1, §2, §3, §4, §5, §6, §7

Microsporum persicolor = conditions: Nannizzia persicolor, Micro.Persicolor; for activity at 10 µg/mL: 10µg/ml each product, read-out: % DE CROISSANCE; for inhibition at 2 µg/mL / inhibition at 10 µg/mL / inhibition at 20 µg/mL / inhibition at 50 µg/mL: read-out: inhibition de la croissance
Experimental: as §1, §2, §3, §4, §5, §6, §7

[1] = tested on: Trichophyton mentagrophytes; conditions: Tric.Mentagophytes; for activity at 20 µg/mL: read-out: % DE CROISSANCE; for inhibition at 2 µg/mL / inhibition at 10 µg/mL / inhibition at 20 µg/mL / inhibition at 50 µg/mL: read-out: inhibition de la croissance
Experimental: as §1, §2, §3, §4, §5, §6, §7

CCCCOCCOCCOCc1cc2c(cc1CCC)OCO2 [Piperonyl., pipéronyl butoxyde]
65%: activity at 20 µg/mL ([1]; 336 h, J14, 20µg/ml each product) | inhibition at 20 µg/mL ([1]; J+14, 20 µg/ml)
75%: activity at 10 µg/mL (Microsporum persicolor; 336 h, J14) | inhibition at 10 µg/mL (Microsporum persicolor; J+14)
0%: inhibition at 50 µg/mL (Microsporum canis; J+4, 50 µg/ml) | inhibition at 50 µg/mL (Microsporum canis; J+10, 50 µg/ml) | inhibition at 50 µg/mL (Microsporum canis; J+14, 50 µg/ml) | activity at 10 µg/mL (Epidermophyton floccosum; 0 h, J0, 10µg/ml each product) | activity at 10 µg/mL (Epidermophyton floccosum; 96 h, J4, 10µg/ml each product) | inhibition at 10 µg/mL (Epidermophyton floccosum; J+4, 10 µg/ml) | inhibition at 20 µg/mL (Epidermophyton floccosum; J+4, 20 µg/ml) | inhibition at 50 µg/mL (Epidermophyton floccosum; J+4, 50 µg/ml) | inhibition at 50 µg/mL (Epidermophyton floccosum; J+10, 50 µg/ml) | inhibition at 50 µg/mL (Epidermophyton floccosum; J+14, 50 µg/ml) | activity at 10 µg/mL (Microsporum persicolor; 0 h, J0) | activity at 10 µg/mL (Microsporum persicolor; 96 h, J4) | inhibition at 10 µg/mL (Microsporum persicolor; J+4) | inhibition at 20 µg/mL (Microsporum persicolor; J+4) | inhibition at 50 µg/mL (Microsporum persicolor; J+4) | inhibition at 50 µg/mL (Microsporum persicolor; J+10) | inhibition at 50 µg/mL (Microsporum persicolor; J+14) | activity at 20 µg/mL ([1]; 0 h, J0, 20µg/ml each product) | activity at 20 µg/mL ([1]; 96 h, J4, 20µg/ml each product) | inhibition at 20 µg/mL ([1]; J+4, 20 µg/ml) | inhibition at 50 µg/mL ([1]; J+4, 50 µg/ml) | inhibition at 50 µg/mL ([1]; J+10, 50 µg/ml) | inhibition at 50 µg/mL ([1]; J+14, 50 µg/ml)
15%: inhibition at 2 µg/mL (Epidermophyton floccosum; J+4, 2 µg/ml)
45%: inhibition at 20 µg/mL (Microsporum canis; J+10, 20 µg/ml) | activity at 10 µg/mL (Epidermophyton floccosum; 240 h, J10, 10µg/ml each product) | inhibition at 10 µg/mL (Epidermophyton floccosum; J+10, 10 µg/ml)
85%: inhibition at 2 µg/mL (Microsporum persicolor; J+10)
25%: inhibition at 20 µg/mL (Epidermophyton floccosum; J+10, 20 µg/ml) | inhibition at 20 µg/mL (Microsporum persicolor; J+14) | activity at 20 µg/mL ([1]; 144 h, J6, 20µg/ml each product)
100%: inhibition at 2 µg/mL (Microsporum canis; J+14, 2 µg/ml) | inhibition at 2 µg/mL (Epidermophyton floccosum; J+14, 2 µg/ml) | inhibition at 2 µg/mL (Microsporum persicolor; J+14) | inhibition at 2 µg/mL ([1]; J+14, 2 µg/ml)
90%: inhibition at 2 µg/mL (Epidermophyton floccosum; J+10, 2 µg/ml)
60%: inhibition at 10 µg/mL (Microsporum canis; J+10, 10 µg/ml) | inhibition at 20 µg/mL (Microsporum canis; J+14, 20 µg/ml) | activity at 20 µg/mL ([1]; 240 h, J10, 20µg/ml each product) | inhibition at 10 µg/mL ([1]; J+10, 10 µg/ml) | inhibition at 20 µg/mL ([1]; J+10, 20 µg/ml)
20%: activity at 10 µg/mL (Microsporum persicolor; 144 h, J6) | inhibition at 2 µg/mL (Microsporum persicolor; J+4) | inhibition at 20 µg/mL (Microsporum persicolor; J+10)
80%: inhibition at 2 µg/mL (Microsporum canis; J+10, 2 µg/ml) | inhibition at 10 µg/mL (Microsporum canis; J+14, 10 µg/ml) | inhibition at 2 µg/mL ([1]; J+10, 2 µg/ml)
30%: inhibition at 20 µg/mL (Epidermophyton floccosum; J+14, 20 µg/ml) | inhibition at 2 µg/mL ([1]; J+4, 2 µg/ml)
40%: activity at 10 µg/mL (Microsporum persicolor; 240 h, J10) | inhibition at 10 µg/mL (Microsporum persicolor; J+10)
10%: activity at 10 µg/mL (Epidermophyton floccosum; 144 h, J6, 10µg/ml each product) | inhibition at 10 µg/mL ([1]; J+4, 10 µg/ml)
70%: activity at 10 µg/mL (Epidermophyton floccosum; 336 h, J14, 10µg/ml each product) | inhibition at 10 µg/mL (Epidermophyton floccosum; J+14, 10 µg/ml) | inhibition at 10 µg/mL ([1]; J+14, 10 µg/ml)
